From patent publication US20230053540A1, “TREATMENT OF LIVER INJURY” (Massachusetts Institute of Technology, priority 2019, published 2023)

Test system: hepatocytes
Assay: Seq-Well scRNA-Seq of hepatocytes after APAP overdose (signature scores, DEG vs untreated)
Type: in vivo, mouse
Details: cluster A6 (APAP 6 hr)

CC(=O)Nc1ccc(O)cc1 [APAP, acetaminophen]
Cxadr avg_logFC: 0.6184
Cxadr pct.1: 0.606
Cyp4a14 avg_logFC: 0.5996
Cyp4a14 pct.1: 0.776
D10Wsu102e avg_logFC: 0.5134
D10Wsu102e pct.1: 0.37
Ddx3x avg_logFC: 0.4893
Ddx3x pct.1: 0.692
Ddx5 avg_logFC: 0.4732
Ddx5 pct.1: 0.685
Ddx21 avg_logFC: 0.6398
Dgkd avg_logFC: 0.3462
Dgkd pct.1: 0.282
Dkc1 avg_logFC: 0.3232
Dkc1 pct.1: 0.315
Dot1l avg_logFC: 0.3695
Dot1l pct.1: 0.282
Dusp5 avg_logFC: 0.2889
Dusp5 pct.1: 0.196
Dusp6 avg_logFC: 0.4768
Dusp6 pct.1: 0.482
Dusp16 avg_logFC: 0.4153
Dusp16 pct.1: 0.372
Eaf1 avg_logFC: 0.5066
Eaf1 pct.1: 0.427
Efhd2 avg_logFC: 0.5545
Efhd2 pct.1: 0.468
Eif1a avg_logFC: 0.6585
Eif1a pct.1: 0.599
Eif4g2 avg_logFC: 0.3399
Eif4g2 pct.1: 0.757
Epas1 avg_logFC: 0.6264
Epas1 pct.1: 0.604
Etf1 pct.1: 0.606
Etnppl avg_logFC: 0.4038
Etnppl pct.1: 0.706
Ets2 avg_logFC: 0.6277
Ets2 pct.1: 0.415
Fam107b avg_logFC: 0.4224
Fam107b pct.1: 0.449
Fam134b avg_logFC: 0.6202
Fam134b pct.1: 0.678
Fcgr3 avg_logFC: 0.294
Fcgr3 pct.1: 0.107
Fcna avg_logFC: 0.3469
Fcna pct.1: 0.124
Fxyd5 avg_logFC: 0.2697
Fxyd5 pct.1: 0.138
Gclc avg_logFC: 1.893
Gclc pct.1: 0.962
Gcnt2 avg_logFC: 0.4614
Gcnt2 pct.1: 0.372
Gm10800 avg_logFC: 0.5383
Gm10800 pct.1: 0.115
Gm15564 avg_logFC: 0.6079
Gm15564 pct.1: 0.983
Gm23388 avg_logFC: 0.4216
Gm23388 pct.1: 0.222
Gm24187 avg_logFC: 0.3969
Gm24187 pct.1: 0.2
Gm24245 avg_logFC: 0.5737
Gm24245 pct.1: 0.422
Gm26924 avg_logFC: 0.3029
Gm26924 pct.1: 1
Gnl3 avg_logFC: 0.477
Gnl3 pct.1: 0.501
Gpt2 avg_logFC: 0.3682
Gpt2 pct.1: 0.764
Gsta1 avg_logFC: 0.4204
Gsta1 pct.1: 0.32
Gtpbp4 avg_logFC: 0.4579
Gtpbp4 pct.1: 0.477
H2-Ab1 avg_logFC: 0.4491
H2-Ab1 pct.1: 0.158
H2-Eb1 avg_logFC: 0.3214
H2-Eb1 pct.1: 0.105
H3f3b avg_logFC: 0.5088
H3f3b pct.1: 0.613
Hba-a1 avg_logFC: 0.716
Hba-a1 pct.1: 0.165
Hba-a2 avg_logFC: 0.5328
Hba-a2 pct.1: 0.131
Heatr1 avg_logFC: 0.3433
Heatr1 pct.1: 0.291
Hic2 avg_logFC: 0.2673
Hic2 pct.1: 0.15
Hif1a avg_logFC: 0.4719
Hif1a pct.1: 0.427
Hilpda avg_logFC: 0.7698
Hilpda pct.1: 0.403
Hmox1 avg_logFC: 1.29
Hmox1 pct.1: 0.558
Hnf4a avg_logFC: 0.559
Hnf4a pct.1: 0.835
Hnrnpdl avg_logFC: 0.4137
Hnrnpdl pct.1: 0.406
Hsd17b13 avg_logFC: 0.5284
Hsd17b13 pct.1: 0.864
Ier5 avg_logFC: 0.2797
Ier5 pct.1: 0.134
Iigp1 avg_logFC: 0.6118
